Source: PubChem BioAssay (NCI)
Several values for one entry are separate records, joined by “and”; a condition that tells them apart may be missing. Equal values may be shown once.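 Dose response: 5 concentrations. Exposure: 48 h. Format: 96-well plates. Endpoint: linear interpolation; highest concentration if not reached. GI50: concentration for 50% inhibition of growth. TGI denotes the concentration required for complete inhibition of growth.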

Tests used:
Assay in all cases: growth of human tumour cells (NCI), 48 h
TK-10 renal = tested on: TK-10 renal
K-562 leukemia = tested on: K-562 leukemia
SF-539 CNS = tested on: SF-539 CNS
EKVX NSCLC = tested on: EKVX NSCLC
HS 578T breast = tested on: HS 578T breast
HCC-2998 colon = tested on: HCC-2998 colon
CAKI-1 renal = tested on: CAKI-1 renal
SNB-75 CNS = tested on: SNB-75 CNS
SF-268 CNS = tested on: SF-268 CNS
NCI-H226 lung = tested on: NCI-H226 lung

Structure (SMILES) | GI50 (TK-10 renal) | TGI (TK-10 renal) | GI50 (K-562 leukemia) | TGI (K-562 leukemia) | GI50 (SF-539 CNS) | TGI (SF-539 CNS) | GI50 (EKVX NSCLC) | TGI (EKVX NSCLC) | GI50 (HS 578T breast) | TGI (HS 578T breast) | GI50 (HCC-2998 colon) | TGI (HCC-2998 colon) | GI50 (CAKI-1 renal) | TGI (CAKI-1 renal) | GI50 (SNB-75 CNS) | TGI (SNB-75 CNS) | GI50 (SF-268 CNS) | TGI (SF-268 CNS) | GI50 (NCI-H226 lung) | TGI (NCI-H226 lung)
COc1ccc(/C=C\c2cc(OC)c(OC)c(OC)c2)c(NS(=O)(=O)c2ccc(F)cc2)c1O | 2.25 µM | > 100 µM | 0.0353 µM | > 76 µM | 0.0622 µM | 0.192 µM | 0.466 µM | > 100 µM | 0.113 µM | > 100 µM | 0.169 µM | 6.9 µM | 0.115 µM | > 100 µM | 0.0349 µM | > 100 µM | 0.224 µM | > 100 µM | 0.142 µM | –
COC(=O)c1cccc(NC(=O)c2ccc(NC3=C(Cl)C(=O)N(Cc4ccccc4)C3=O)cc2)c1 | 23.4 µM | 63.4 µM | 21.3 µM | 52.7 µM | 14.7 µM | 29.5 µM | 23.6 µM | 63.6 µM | 22 µM | 69.4 µM | 2.04 µM | 3.77 µM | 1.72 µM | 3.14 µM | 18.3 µM | 62.6 µM | 23 µM | 54.9 µM | 7.25 µM | 35.2 µM
O=C1c2ccc3c4c(ccc(c24)C(=O)N1CCNCc1ccccc1)C(=O)N(CCNCc1ccccc1)C3=O | 2.93 µM | > 100 µM | 0.365 µM | > 100 µM | 1.88 µM | 3.64 µM | 2.03 µM | 6.02 µM | 1.83 µM | 5.27 µM | 1.74 µM | 3.15 µM | 1.88 µM | 4.91 µM | 3.19 µM | 43.1 µM | 2.76 µM | 14.7 µM | – | –
O=C(O)c1ccc(/C=N/N=C2c3ccccc3-c3ccccc32)cc1 | – | > 100 µM | – | > 100 µM | – | 92.3 µM | – | > 100 µM | – | 53.1 µM | – | – | – | 93.3 µM | – | – | – | 89.3 µM | – | 45.5 µM
O=c1/c(=C\c2ccc(Br)cc2)sc2n1C(c1ccc(Br)cc1)C1=C(N=2)c2ccc3ccccc3c2OCC1 (stereo unspecified) | > 100 µM | > 100 µM | > 100 µM | > 100 µM | > 100 µM | > 100 µM | > 100 µM | > 100 µM | > 100 µM | > 100 µM | > 100 µM | > 100 µM | – | – | > 100 µM | > 100 µM | > 100 µM | > 100 µM | > 100 µM | > 100 µM
COC1C(=O)CCC2(CO2)C1(O)C1(C)OC1CC=C(C)C (stereo unspecified) | – | > 100 µM | – | 76.3 µM | – | – | – | > 100 µM | – | > 100 µM | – | 46.5 µM | – | > 100 µM | – | > 100 µM | – | > 100 µM | – | –
Cc1c(C(=O)c2ccccc2)[n+](=O)c2cc(F)c(F)cc2n1[O-] | 1.36 µM | 17.5 µM | 1.97 µM | > 100 µM | 3.94 µM | 12.9 µM | 10.4 µM | 33 µM | 2.08 µM | 4.68 µM | – | – | 1.88 µM | 3.45 µM | – | – | 1.93 µM | 4.12 µM | 2.67 µM | 4.34 µM
Nc1cc(N)c2nc(NCCc3ccc(Cl)c(Cl)c3)cnc2c1 | 18.5 µM | 33.3 µM | 3.36 µM | 14.1 µM | 15.4 µM | 29.8 µM | 12.1 µM | 24.6 µM | 23.5 µM | 56.9 µM | – | – | 4.89 µM | 18.2 µM | 14.2 µM | 27.2 µM | 4.7 µM | 17.6 µM | 21.4 µM | 47.6 µM
CCc1ncc(CO)n1Cc1cccc2ccccc12 | – | > 100 µM | – | > 100 µM | – | > 100 µM | – | > 100 µM | – | > 100 µM | – | – | – | > 100 µM | – | > 100 µM | – | > 100 µM | – | > 100 µM
CC1[C@@H]2CC=C3[C@H]4CCC5Cc6nc7c(nc6C[C@@]5(C)C4CC(=O)[C@]32CO[C@]12OC(C)(C)CC2O)CC1CC[C@@H]2C3=C[C@H]4O[C@@]5(O[C@@](C)(CO)C[C@@H]5O)C(C)[C@@]4(O)[C@]3(C)[C@@H](O)CC2[C@]1(C)C7 (stereo partly specified) | – | 0.576 µM | 0.000615 µM and 0.00111 µM | 0.0278 µM and 0.0311 µM | 0.00016 µM and 0.000365 µM | – | 0.00539 µM and 0.00763 µM | 0.141 µM and 0.227 µM | 0.000112 µM | 0.00137 µM | 0.292 µM | 0.912 µM and > 3.65 µM | – | – | 0.000365 µM | – | 0.0011 µM and 0.00472 µM | 0.253 µM and 0.441 µM | – | 0.0901 µM and 0.103 µM
COC(=O)c1c2c(c(C)[n+]([O-])c1C)C(=O)C(NCc1ccc(O)cc1)=CC2=O | – | – | 1.63 µM | 7.39 µM | 1.68 µM | 3.07 µM | 1.73 µM | 3.34 µM | 2.3 µM | 6.98 µM | 1.46 µM | 3.23 µM | 1.69 µM | 4.26 µM | 1.67 µM | 3.06 µM | 1.64 µM | 3.53 µM | 2.06 µM | 4.36 µM
CCn1ncc(N=O)c1N | – | > 100 µM | – | > 100 µM | – | > 100 µM | – | > 100 µM | – | > 100 µM | – | > 100 µM | – | > 100 µM | 22 µM and 58 µM | > 100 µM | – | > 100 µM | – | –
